In BindingDB's records for patent US20240376113 (Volastra Therapeutics, 2024):

Target: T1, Ectonucleotide pyrophosphatase/phosphodiesterase family member 1 (Homo sapiens, UniProt P22413)
T1 sequence (P22413 whole entry): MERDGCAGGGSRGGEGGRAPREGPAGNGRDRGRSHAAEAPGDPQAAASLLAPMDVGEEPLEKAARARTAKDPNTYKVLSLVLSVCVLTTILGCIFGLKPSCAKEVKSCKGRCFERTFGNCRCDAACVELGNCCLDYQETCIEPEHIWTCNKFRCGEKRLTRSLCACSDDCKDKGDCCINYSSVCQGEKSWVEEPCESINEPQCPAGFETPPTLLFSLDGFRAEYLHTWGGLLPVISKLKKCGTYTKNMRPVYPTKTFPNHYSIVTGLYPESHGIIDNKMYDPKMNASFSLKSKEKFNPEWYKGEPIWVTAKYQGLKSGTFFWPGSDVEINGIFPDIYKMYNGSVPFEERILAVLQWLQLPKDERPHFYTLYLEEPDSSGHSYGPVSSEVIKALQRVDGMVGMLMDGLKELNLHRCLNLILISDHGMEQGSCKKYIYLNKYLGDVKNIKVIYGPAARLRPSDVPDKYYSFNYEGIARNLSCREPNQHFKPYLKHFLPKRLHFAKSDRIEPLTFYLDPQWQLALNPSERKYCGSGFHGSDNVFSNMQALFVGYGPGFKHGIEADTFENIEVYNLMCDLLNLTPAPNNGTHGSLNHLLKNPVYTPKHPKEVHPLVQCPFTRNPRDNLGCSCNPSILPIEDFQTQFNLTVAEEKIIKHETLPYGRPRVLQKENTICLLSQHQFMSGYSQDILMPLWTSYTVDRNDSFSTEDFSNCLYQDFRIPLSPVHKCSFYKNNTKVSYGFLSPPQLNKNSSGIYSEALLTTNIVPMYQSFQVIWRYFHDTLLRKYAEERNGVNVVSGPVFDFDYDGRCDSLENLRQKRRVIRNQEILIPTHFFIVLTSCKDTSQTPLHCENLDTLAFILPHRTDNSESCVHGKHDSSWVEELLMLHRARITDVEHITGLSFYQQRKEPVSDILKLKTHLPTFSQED
Assay: Inhibition of ENPP1 hydrolysis of 2′,3′-cGAMP (Assay 1)
Method: Test compounds were plated in a 3× dilution scheme in a 384 well plate.

Structure (SMILES): Cc1c(Cc2ccc(S(C)(=N)=O)cc2)c(N)cc2ncnn12 (configuration not stated) [US20240376113, Compound 89]
- Ki: 28 nM

Structure (SMILES): Cc1c(Cc2ccc(S(C)(=N)=O)cc2)c(N(C)C)nc2ncnn12 (configuration not stated) [US20240376113, Compound 86]
- Ki: 0.138 nM
